What was measured:
Assay type in all cases: functional
Mus musculus [1] = experiment: Compound was evaluated in vivo for the antagonist activity by the tail flick assay using morphine as the agonist in mice
Mus musculus [2] = experiment: Compound was evaluated in vivo for the agonist activity after subcutaneous administration as aqueous solutions of HCl salt in mice using Phenylquinone (PPQ) writhing assay; conditions: sc
Mus musculus [3] = experiment: Compound was evaluated in vivo for the agonist activity after subcutaneous administration as aqueous solutions of HCl salt in mice using Hot plate assay; conditions: sc
Mus musculus [4] = experiment: Compound was evaluated in vivo for the agonist activity after subcutaneous administration as aqueous solutions of HCl salt in mice using Nilsen assay; conditions: sc
Mus musculus [5] = experiment: Compound was evaluated in vivo for the agonist activity after subcutaneous administration as aqueous solutions of HCl salt in mice using Tail flick assay; conditions: sc
Mus musculus [6] = experiment: Compound was evaluated in vivo for the agonist activity after subcutaneous administration as aqueous solutions of HCl salt in mice using Nilsen assay.; conditions: sc
Mus musculus [7] = experiment: Compound was evaluated in vivo for the antagonist activity by the tail flick assay using morphine as the agonist in mice.

Question: `CO/N=C1\CCC2(O)C3Cc4ccc(O)c5c4C2(CCN3CC2CC2)C1O5` (centres undefined) was tested. Which ED50 (Mus musculus [1]) did it give?
Answer: Its ED50 is 0.08 mg/kg.

Question: `CN1CCC23c4c5ccc(O)c4OC2C2(CCC3(O)C1C5)NN2` (centres undefined) was tested. Which ED50 (Mus musculus [2]) did it give?
Answer: The ED50 was 0.05 mg/kg.

Question: And the ED50 (Mus musculus [3])?
Answer: The ED50 was 0.81 mg/kg.

Question: And the ED50 (Mus musculus [4])?
Answer: The ED50 was 2 mg/kg.

Question: And the ED50 (Mus musculus [5])?
Answer: Its ED50 is 0.7 mg/kg.

Question: For `C=CCN1CCC23c4c5ccc(O)c4OC2/C(=N/OC)CCC3(O)C1C5` (centres undefined), which ED50 (Mus musculus [1]) is on record?
Answer: The ED50 was 1.9 mg/kg.

Question: With `CN1CC[C@]23c4c5ccc(O)c4O[C@H]2[C@@H](O)CC[C@H]3[C@H]1C5.Cl` as the compound, how does the ED50 (Mus musculus [3]) read?
Answer: Its ED50 is 0.19 mg/kg.

Question: What about the ED50 (Mus musculus [6]) of the same compound?
Answer: Its ED50 is 0.2 mg/kg.

Question: `C=CCN1CCC23c4c5ccc(O)c4OC2/C(=N/O)CCC3(O)C1C5` (centres undefined) was tested. Which ED50 (Mus musculus [1]) did it give?
Answer: Its ED50 is 0.06 mg/kg.

Question: For `O/N=C1\CCC2(O)C3Cc4ccc(O)c5c4C2(CCN3CC2CC2)C1O5` (centres undefined), which ED50 (Mus musculus [7]) is on record?
Answer: Its ED50 is 0.08 mg/kg.

Question: `CO/N=C1\CCC2(O)C3Cc4ccc(O)c5c4C2(CCN3C)C1O5` (centres undefined) was tested. Which ED50 (Mus musculus [2]) did it give?
Answer: The ED50 was 0.02 mg/kg.

Question: What about the ED50 (Mus musculus [3]) of the same compound?
Answer: The ED50 was 0.22 mg/kg.

Question: And the ED50 (Mus musculus [5])?
Answer: The ED50 was 0.08 mg/kg.

Question: Which ED50 (Mus musculus [7]) does the source give for `Cl.O=C1CC[C@@]2(O)[C@H]3Cc4ccc(O)c5c4[C@@]2(CCN3CC2CC2)[C@H]1O5` [NALTREXONE HYDROCHLORIDE] here?
Answer: The ED50 was 0.007 mg/kg.

Question: `Oc1ccc2c3c1OC1C4(CCC5(O)C(C2)N(CC2CC2)CCC315)NN4` (centres undefined) was tested. Which ED50 (Mus musculus [7]) did it give?
Answer: Its ED50 is 0.02 mg/kg.

Question: For `CN1CCC23c4c5ccc(O)c4OC2/C(=N/O)CCC3(O)C1C5` (centres undefined), which ED50 (Mus musculus [2]) is on record?
Answer: Its ED50 is 0.1 mg/kg.

Question: And the ED50 (Mus musculus [3])?
Answer: Its ED50 is 0.56 mg/kg.

Question: What about the ED50 (Mus musculus [6]) of the same compound?
Answer: Its ED50 is 0.45 mg/kg.

Question: What about the ED50 (Mus musculus [5]) of the same compound?
Answer: The ED50 was 2.2 mg/kg.

Reference: ChEMBL document CHEMBL1122549, “Opioid agonists and antagonists. 6,6-Hydrazi and 6-oximino derivatives of 14-hydroxydihydromorphinones” (1984)
